The values that follow come from patent US20100178362A1, “CHROMIUM COMPLEXES FOR IMPROVEMENT OF MEMORY AND COGNITIVE FUNCTION” (priority 2007, published 2010).

One series concerns HFD/STZ-treated rats. Description: Rat model of type 2 diabetes (high-fat diet + streptozotocin): chromium, carbohydrate metabolism and serotonergic properties. Format: in vivo, male Sprague-Dawley rats. More on the design: Cortisol: unit not given here. As to the method:
An animal model of type 2 diabetes was produced by feeding male Sprague-Dawley rats (n=33) with a high-fat diet (HFD, 40% Kcal from fat) for 2 weeks, then intraperitoneally administering streptozotocin (STZ, 40 mg/kg). The HFD/STZ-treated rats were then administered 80 mcg chromium picolinate/kg body weight/day for 10 weeks. Chromium picolinate was obtained from Nutrition 21, Purchase, N.Y. Untreated Sprague-Dawley (standard control diet) and HFD/STZ-treated rats not administered chromium picolinate served as controls.
Chromium picolinate administration to HFD/STZ treated rats increased brain chromium levels and improved all measurements or carbohydrate metabolism and serotonergic properties.

A further series has as its system motor speed. Description: Trail-Making task in trial subjects with Mild Cognitive Impairment. Format: in vivo, men and women. As to the method:
(§1) A randomized, double blind, placebo-controlled trial is conducted to evaluate the efficacy of chromium picolinate in producing enhancements of neuropsychological function in men and women with Mild Cognitive Impairment. Changes in indices of glucose metabolism and in salivary cortisol levels also are measured to gather exploratory information concerning potential mechanisms by which the intervention produces its effects. The subjects participate in a 12-week protocol with major assessments of neuropsychological and biological measures at pre-treatment baseline and during the final week of the intervention. In addition, a brief interim evaluation of neurocognitive function is conducted at 6 weeks to gather information that to assess trends and acute response. Mood, as a potential covariate of the neurobehavioral outcome measures, is also assessed. Overall diet and consumption of other supplements are assessed with diet diaries at different phases of the intervention. Compliance and adverse responses are monitored throughout the period of the intervention by means of weekly telephone contacts.
(§2) Chromium picolinate: The chromium supplement is provided by Nutrition21, Purchase, N.Y., a major distributor of the chromium picolinate supplement form. […]

The test system of another series is cerebral activation. Nature of the series: fMRI during working memory (visual-spatial n-back) task in trial subjects with Mild Cognitive Impairment. Type of series: in vivo, men and women. How it is done: as §1
(§3) Chromium picolinate: The chromium supplement is provided by Nutrition21, Purchase, N.Y., a major distributor of the chromium picolinate supplement form. A single capsule 1000 mcg dose is administered to subjects receiving the chromium treatment with the morning meal each day for the duration of the intervention. Similar appearing placebo capsules are administered in a similar manner to subjects receiving the placebo treatment.
A neuropsychological protocol is administered and fMRI scans are obtained before and after treatments using a Varian INOVA 4 Tesla scanner. Two runs of BOLD EPI, 30 contiguous 5 mm coronal slices are acquired. Images are obtained while subjects performed the NIH visual-spatial n-back task with 0- and 1-back blocks. There are 20, 1.5 s trials per block; each block repeated 6 times. Image analyses are performed using AFNI and included co-registration, motion correction, blur, normalization, and event-related analysis. […]

Series [1] in a line: Placebo-controlled trial in Mild Cognitive Impairment: chromium to creatinine ratio. Format: in vivo, men and women. How it is done:
as §1, §2

The subject of the next series is memory function. Description: California Verbal Learning Test in trial subjects with Mild Cognitive Impairment. Format: in vivo, men and women. As to the method:
as §1
California Verbal Learning Test: The California Verbal Learning Test (CVLT) is among the best designed of a number of list learning procedures used to assess memory consolidation ability. It provides data on learning rate or efficiency, interference effects, recall, and recognition memory. Reliability and validity data are adequate and well established. Our data with a middle-aged sample indicated a trend for recall and recognition memory effects on this procedure.
as §3

For another series, the system named is rats. The following applies: cited from earlier work.
The test system of series [2] is spatial learning and memory. Nature of the series: Morris Water Maze test of spatial learning and memory. Type of series: in vivo, male Wistar rats. The following applies: for Improvement of spatial learning and/or memory: control animals and insulin-resistant animals; for Escape latency compared to controls: treatment for twelve weeks. The source says: 8-week old, male, Wistar rats were divided into eight groups: four control groups (C) and four insulin-resistant groups (HFD). Insulin resistance was induced in by feeding the rats a high-fat diet (40% of calories as fat). The four groups in the control and insulin-resistant groups included: a no treatment group, a 14.3 mcg chromium picolinate group (CrPic), a 19.7 mcg chromium histidinate group (CrHis), and a 7.15 chromium picolinate and 9.85 chromium histidinate group (CrPic+CrHis). Four rats were assigned to each of the eight groups. Treatments were administered for twelve weeks.
Spatial learning and memory were then tested using the Morris Water Maze test. Rats were placed in a circular water tank (120 cm diameter, 50 cm height) that was partially filled with water (25° C.). Milk powder was used to render the water opaque. Each rat was acclimated to the task with two days of free-swimming in the pool with no platform. […] Distal spatial cues were provided and kept constant throughout the testing, such that the rats could use the cues to find the platform. Rats were given 60 seconds to find the platform during each trial. The escape latency was defined as the time required for the rat to find a hidden platform.
A probe trial was performed in which the hidden platform was removed from the pool, and the animal was allowed to swim for 60 seconds. Typically, a rat will swim in a quadrant of the pool where the platform was previously hidden.

[3] abbreviates: 80 mcg chromium picolinate/kg body weight/day for 10 weeks, mean ± SD.
Where [4] appears, read: 80 mcg/kg body weight/day for 10 weeks.
[5] abbreviates: Study 1: 1000 mcg elemental chromium daily, 12 weeks, v placebo, effect size moderate.
Setting [6] is: as printed under Results - Study 2.
[7] abbreviates: control rats (C), FIGS. 1A and 1C.

Where two headings read alike, the source gives them in different places.

Take chromium picolinate: in the series with HFD/STZ-treated rats (setting [3]), the “CISI (insulin sensitivity)” value was found to be 1.3 ± 0.04, the “Chromium - Brain” value is listed as 22.6 ± 1.2 ng/g, the Cortisol came out at 11.5 ± 0.4 and the Glucose came to 287.0 ± 2.7 mg/dL. In the series on HFD/STZ-treated rats (setting [3]), the “Insulin Brain” value is given as 8.9 ± 2.0 ng/g, the “Insulin Serum” value is 25.9 ± 0.5 uU/mL, the Melatonin was found to be 16.3 ± 0.2 µg/g and the “Serotonin Brain” value worked out at 520.3 ± 4.1 µg/g. For the same molecule, in the series on HFD/STZ-treated rats (setting [3]), the “Serotonin Serum” value stood at 174.9 ± 2.5 mg/dL, the “Tryptophan Brain” value stood at 5.5 ± 0.2 µg/g and the “Tryptophan Serum” value amounted to 16.1 ± 0.3 mg/dL. Moreover, in the series with HFD/STZ-treated rats (setting [4]), the “Insulin resistance compared to the HFD/STZ group” value is “reduced” and the “Tolerability / adverse events” value is on record as “well tolerated without any adverse events”. In addition, in the series with motor speed (setting [5]), the “Motor speed on the Trail-Making task” value is recorded as “trend for enhanced motor speed”. Moreover, the Motor speed entry in the series on motor speed (as printed under Results - Study 2, sentence breaks off) was “trend for enhanced motor”. Moreover, in the series on cerebral activation (Study 1: individual subjects, increasing working memory load), the “fMRI activation pattern, pre- v post-intervention scans” value was “increasing activation in left frontal and left parietal cortices”. The “Performance on the working memory task” value in the series with cerebral activation (Study 2: n-back task in the scanner, v placebo) was “not reflected in differential performance”. Further, the “fMRI activation relative to placebo treated subjects” value in the series with cerebral activation (Study 2: right thalamic, right temporal, right posterior parietal and bilateral frontal regions, p=0.005 corrected) is “greater activation”. For the same molecule, in series [1] (Study 1: 1000 mcg elemental chromium daily for 12 weeks (n=11) v placebo (n=10), F=8.85, p=0.008), the “Chromium to creatinine ratios at treatment termination” value is “significantly elevated”. For the same molecule, the “Chromium to creatinine ratios at treatment termination” value in series [1] (Study 2: 1000 mcg elemental chromium daily for 12 weeks (n=9) v placebo (n=4), F=8.86, p<0.0001) is reported as “elevated”. In addition, the “Accuracy of memory on the California Verbal Learning Test” value in the series with memory function (Study 1: 1000 mcg elemental chromium daily, 12 weeks, v placebo) was “No group differences”. In addition, in the series with memory function (setting [5]), the “Semantic interference (free recall intrusions)” value is on record as “trend for reduced semantic interference”. The “Intrusion errors on the California Verbal Learning Test” value in the series on memory function (Study 2: administered outside the scanner, relative to the placebo group) was “reduced intrusion errors”. In the series with memory function (setting [6]), the “Accuracy of memory on the California Verbal Learning Test” value is “No group differences” and the Semantic interference result is “trend for reduced semantic interference”. In addition, the Toxic effects entry in the series with rats (rat, in vivo) is given as “without toxic effects”. In series [2], the “Improvement of spatial learning and/or memory” value is “effective in improving spatial learning and/or memory”. Besides, the “Escape latency compared to controls” value in series [2] (setting [7]) is reported as “significantly shorter escape latencies on day 3”.

For the molecule chromium histidinate, in series [2], the “Improvement of spatial learning and/or memory” value is reported as “effective in improving spatial learning and/or memory”. In addition, the “Escape latency compared to controls” value in series [2] (setting [7]) is “significantly shorter escape latencies on day 3”; in series [2] (insulin-resistant rats (HFD), FIGS. 1B and 1D) it was “significantly shorter escape latencies on days 3 and 5”.

In the case of `[Cl][Cr]([Cl])[Cl]` [chromium chloride], the Toxic effects result with rats (rats, levels several thousand times the upper limit of the human ESADDI for chromium (based on body weight)) was “without toxic effects”.
